Patent publication US9504747B2, “Lipids and lipid compositions for the delivery of active agents” (Novartis AG, priority 2013, dated 2016)
Several values for one entry are separate records, joined by “and”; a condition that tells them apart may be missing. Identical values can stand only once.

Assays:
[1] = pKa measurement of the cationic lipid (TNS fluorescence vs pH); format: physicochemical; settings: probe TNS (fluorescent probe), pKa of the cationic lipid of formula (I)
Experimental: Unless indicated otherwise, all pKa's referred to herein were measured at standard temperature and pressure. Also, unless otherwise indicated, all references to pKa are references to pKa measured using the following technique. 2 mM solution of lipid in ethanol was prepared by weighing the lipid and then dissolving it in ethanol. 0.3 mM solution of fluorescent probe TNS in ethanol:methanol 9:1 was prepared by first making 3 mM solution of TNS in methanol and then diluting to 0.3 mM with ethanol. An aqueous buffer containing 200 mM sodium phosphate dibasic and 100 mM citric acid was prepared. […] Using the Hamilton Microlab Star high throughput liquid handler and Hamilton run control software Software, 7.5 uL of probe/lipid mix were added to 242.5 uL of buffer in a 1 mL 96 well plate (model NUNC 260252, […] Nunc International). This was done with all twelve buffers. After mixing in 1 mL 96 well plate, 100 uL of each probe/lipid/buffer mixture was transferred to a 250 uL black with clear bottom 96 well plate (model COSTAR 3904, Corning). The fluorescence measurements are carried out on the SpectraMax M5 spectrophotometer using software SoftMax pro 5.2 and following parameters: After the measurement, the background fluorescence value of an empty well on the 96 well plate was subtracted from each probe/lipid/buffer mixture. The fluorescence intensity values were then normalized to the value at lowest pH. The normalized fluorescence intensity vs. pH chart was then plotted in the Microsoft Excel software. The twelve points were connected with a smooth line. The point on the line at which the normalized fluorescence intensity was equal to 0.5 was found. […] The pKa determined using this method is precise to about 0.1 pKa units.

[2] = Polydispersity index (PDI) of the lipid nanoparticle (dynamic light scattering); format: physicochemical
Description: The lipid nanoparticles (LNPs) were formed by mixing equal volumes of lipids dissolved in alcohol with siRNA dissolved in a citrate buffer by an impinging jet process. […] The siRNA to total lipid ratio is approximately 0.05 (wt/wt). Where a LNP formulation contains four lipid components, the molar ratios correspond to the type of lipid as it appears in the first four columns of the table, in the order that they appear. The ratio of the lipids ranges from 20 to 70 mole percent for the cationic lipid with a target of 40-60, the mole percent of helper lipid ranges from 20 to 70 with a target of 30 to 50, the mole percent of neutral lipid ranges from 0-30, the mole percent of PEG lipid has a range from 1 to 6 with a target of 2 to 5. The concentration of siRNA solution ranges from 0.7 to 1.0 mg/mL with a target of 0.8 to 0.9 mg/mL in a sodium citrate: sodium chloride buffer pH 4-6, with a target of 4.5-5.5. The LNPs are formed by mixing equal volumes of lipid solution in ethanol with siRNA dissolved in a citrate buffer by an impinging jet process through a mixing device with ID ranging from 0.25 to 2.0 mm at a flow rate from 10 to 640 mL/min. The mixed LNP solution is held at room temperature for 0-24 hrs prior to a dilution step. […] The final product is sterile filtered and stored at 4° C. Unless indicated otherwise, all PDIs referred to herein are the PDI of the fully formed nanoparticle, as measured by dynamic light scattering on a Malvern Zetasizer. The nanoparticle sample was diluted in phosphate buffered saline (PBS) so that the count rate was approximately 200-400 kcts. The data is presented in Tables 4 and 5 as a weighted average of the intensity measure.

[3] = Particle size of the lipid nanoparticle (dynamic light scattering, Malvern Zetasizer); format: physicochemical; settings: Table 4, FVII siRNA LNP, Z-average
Description: The lipid nanoparticles have a size of about 1 to about 2,500 nm, about 1 to about 1,500 nm, about 1 to about 1,000 nm, in a sub-embodiment about 50 to about 600 nm, in a sub-embodiment about 50 to about 400 nm, in a sub-embodiment about 50 to about 250 nm, and in a sub-embodiment about 50 to about 150 nm. Unless indicated otherwise, all sizes referred to herein are the average sizes (diameters) of the fully formed nanoparticle, as measured by dynamic light scattering on a Malvern Zetasizer. The nanoparticle sample is diluted in phosphate buffered saline (PBS) so that the count rate is approximately 200-400 kcts. The data is presented as a weighted average of the intensity measure. The lipid nanoparticles (LNPs) were formed by mixing equal volumes of lipids dissolved in alcohol with siRNA dissolved in a citrate buffer by an impinging jet process. […] The siRNA to total lipid ratio is approximately 0.05 (wt/wt). Where a LNP formulation contains four lipid components, the molar ratios correspond to the type of lipid as it appears in the first four columns of the table, in the order that they appear. The ratio of the lipids ranges from 20 to 70 mole percent for the cationic lipid with a target of 40-60, the mole percent of helper lipid ranges from 20 to 70 with a target of 30 to 50, the mole percent of neutral lipid ranges from 0-30, the mole percent of PEG lipid has a range from 1 to 6 with a target of 2 to 5. The concentration of siRNA solution ranges from 0.7 to 1.0 mg/mL with a target of 0.8 to 0.9 mg/mL in a sodium citrate: sodium chloride buffer pH 4-6, with a target of 4.5-5.5. The LNPs are formed by mixing equal volumes of lipid solution in ethanol with siRNA dissolved in a citrate buffer by an impinging jet process through a mixing device with ID ranging from 0.25 to 2.0 mm at a flow rate from 10 to 640 mL/min. The mixed LNP solution is held at room temperature for 0-24 hrs prior to a dilution step. […] The final product is sterile filtered and stored at 4° C. Unless indicated otherwise, all particle size measurements referred to in Tables 4 and 5 are the Z-average particle size of the fully formed nanoparticle, as measured by dynamic light scattering on a Malvern Zetasizer. The nanoparticle sample was diluted in phosphate buffered saline (PBS) so that the count rate is approximately 200-400 kcts.

[4] = test system: respiratory syncytial virus F protein; test: Immunization studies: anti-RSV-F titers after liposome-delivered vA317 self-replicating RNA; format: in vivo; settings: BALB/c mice, Course A = days 0 & 21, liposomes with 0.1 μg vA317 replicon (naked control 1 μg)
Experimental: BALB/c were immunized with liposomes comprising DSPC, cholesterol, and various lipids of the invention (or, for comparison, the cationic lipid 1,2-dilinoleyloxy-N,N-dimethyl-3-aminopropane or ‘DLinDMA’). The liposomes encapsulated 0.1 μg of “vA317” self-replicating RNA replicon which encodes respiratory syncytial virus F protein (see WO2012/031043). […] Doses were given either on days 0 & 21 or days 0 & 42. Immune responses were assessed 2 weeks after each dose (2wp1, 2wp2), and in some cases also at 4 weeks after the second dose (4wp2). Four series of experiments were performed, each with its own naked control.

[5] = Table 4, FVII siRNA LNP, Chol/DSPC/stealth lipid S010, 45/44/9/2
[6] = Chol/DSPC/stealth lipid S010, molar ratio 45/44/9/2
[7] = Table 4, FVII siRNA LNP, Chol/DSPC/stealth lipid PEG-DMG, 45/44/9/2
[8] = Chol/DSPC/stealth lipid PEG-DMG, molar ratio 45/44/9/2

Row | pKa ([1]; Table 4) | PDI [2, 5] | Size (nm) [3, 6] | SMILES | further results
1 | 6.18 | 0.135 | 102.4 nm | CCCCC/C=C\C/C=C\CCCCCCCC(=O)OCCCCCCCCOc1cc(CN(C)C)cc(OCCCCCCCCOC(=O)CCCCCCC/C=C\C/C=C\CCCCC)c1 [Example 46] | –
2 | 6.21 | 0.098 | 95.55 nm | CCCCCCCC/C=C\CCCCCCCC(=O)OCCCCOc1cc(CN(C)C)cc(OCCCCOC(=O)CCCCCCC/C=C\CCCCCCCC)c1 [Example 60] | –
3 | 6.04 | 0.083 | 149.3 nm | CCCCCCCCCOC(=O)OCCCCCC(=O)OCc1cc(COC(=O)CCCCCOC(=O)OCCCCCCCCC)cc(CN(C)C)c1 [Example 106] | –
4 | 5.84 | 0.058 | 120.3 nm | CCCCCCCC(=O)OCCCCCCCCCC(=O)OCc1cc(COC(=O)CCCCCCCCCOC(=O)CCCCCCC)cc(CN(C)C)c1 [Example 86] | PDI [2, 7]: 0.05; Size (nm) [3, 8]: 128.7 nm
5 | 5.82 | 0.076 | 81.79 nm | CCCCCCCCCCCCCC(=O)OCCCCOc1cc(CN(C)C)cc(OCCCCOC(=O)CCCCCCCCCCCCC)c1 [Example 61] | –
6 | 6.09 | 0.014 | – | CCCCC/C=C\C/C=C\CCCCCCCCOC(=O)CCC(=O)OCc1cc(COC(=O)CCC(=O)OCCCCCCCC/C=C\C/C=C\CCCCC)cc(CN(C)C)c1 [Example 77] | –
7 | 6.02 | 0.043 | – | CCCCCCCC(=O)OCCCCCCCCCCOC(=O)CCC(=O)OCc1cc(COC(=O)CCC(=O)OCCCCCCCCCCOC(=O)CCCCCCC)cc(CN(C)C)c1 [Example 78] | –

The next lines start with the compound.

Row | SMILES | pKa ([1]; Table 4) | PDI [2, 5] | Size (nm) [3, 6] | further results
8 | CCCCCCCC(=O)OC[C@H](CCOc1cc(CN(C)C)cc(OCC[C@@H](COC(=O)CCCCCCC)OC(=O)CCCCCCC)c1)OC(=O)CCCCCCC [Example 93] | 6 | 0.071 | 121.5 nm | –
9 | CCCCC/C=C\C/C=C\CCCCCCCC(=O)OCc1cc(COC(=O)CCCCCCC/C=C\C/C=C\CCCCC)cc(CN(C)C)c1 [Example 33] | 5.85 | 0.042 | 79.15 nm | PDI [2, 7]: 0.06; Size (nm) [3, 8]: 107.8 nm
10 | CCCCC/C=C\C/C=C\CCCCCCCCOc1cc(COC(=O)CCN(C)C)cc(OCCCCCCCC/C=C\C/C=C\CCCCC)c1 [Example 14] | 6.11 | 0.059 | – | anti-RSV-F titer 4wp2 pool 1 ([4]; 4 weeks after second dose): 13687 and 21375; anti-RSV-F titer 4wp2 pool 2 ([4]; 4 weeks after second dose): 18851 and 21347
11 | CCCCCCCC(=O)OC[C@@H](CCOc1cc(CN(C)C)cc(OCC[C@H](COC(=O)CCCCCCC)OC(=O)CCCCCCC)c1)OC(=O)CCCCCCC [Example 94] | 6.16 | 0.073 | 116.4 nm | –
12 | CC/C=C\C/C=C\C/C=C\CCCCCCCC(=O)OCCCCOc1cc(CN(C)C)cc(OCCCCOC(=O)CCCCCCC/C=C\C/C=C\C/C=C\CC)c1 [Example 62] | 5.9 | 0.066 | 102.5 nm | –
13 | CCCCC/C=C\C/C=C\CCCCCCCC(=O)OCCOc1cc(CN(C)C)cc(OCCOC(=O)CCCCCCC/C=C\C/C=C\CCCCC)c1 [Example 40] | 6.17 | 0.062 | 94.28 nm | PDI [2, 7]: 0.02; Size (nm) [3, 8]: 110.9 nm
14 | CCCCCCCC(=O)OCC(COC(=O)CCCCCCC)COc1cc(CN(C)C)cc(OCC(COC(=O)CCCCCCC)COC(=O)CCCCCCC)c1 [Example 111] | 6.27 | 0.048 | 161.9 nm | –
15 | CCCCC/C=C\C/C=C\CCCCCCCCOc1cc(CN(C)C)cc(OCCCCCCCC/C=C\C/C=C\CCCCC)c1 [Example 2] | 5.57 | 0.067 | – | pKa ([1]; Table 5): 5.57; anti-RSV-F titer 2wp1 pool 1 ([4]; 2 weeks after first dose): 217; anti-RSV-F titer 2wp1 pool 2 ([4]; 2 weeks after first dose): 259; anti-RSV-F titer 2wp2 pool 1 ([4]; 2 weeks after second dose): 12785; anti-RSV-F titer 2wp2 pool 2 ([4]; 2 weeks after second dose): 8232; PDI [2, 7]: 0.04; PDI ([2]; Table 5, PLK1-424 siRNA LNP, stealth lipid S011, 45/44/9/2): 0.1
16 | CCCCC/C=C\CC=CCCCCCCCC(=O)OCCCCOc1cc(CN(C)C)cc(OCCCCOC(=O)CCCCCCCC=CC/C=C\CCCCC)c1C [Example 51] | – | 0.052 | 103.2 nm | –
